For five molecules, IC50, Km and kcat results are on record in article PMC3783901, “A spectrophotometric coupled enzyme assay to measure the activity of succinate dehydrogenase^” (Analytical Biochemistry, 2013).

Usually IC50 stands for the concentration needed to halve the response being measured. The term Km denotes the concentration of substrate that gives half-maximal velocity. One may read the kcat as the number of substrate molecules converted per active site and unit of time at saturation.

Series [1] has as its target T1, complex II (succinate:ubiquinone oxidoreductase, succinate dehydrogenase) in bovine heart submitochondrial particles (Bos taurus, UniProt P31039+P35720+Q3T189+Q95123).
T1 construct: gene SDHA; native four-subunit complex in submitochondrial particles from bovine heart mitochondria, not isolated; dicarboxylate site in SDHA, ubiquinone site at SDHB/SDHC/SDHD
The series is described as follows: coupled FumC-MaeB assay of succinate oxidation in SMPs, NADPH absorbance. The class given is biochemical. Conditions: 5 mM succinate, pH 7.4, 32 °C, 2 mM NADP+, 2 mM MgSO4. An excerpt: coupled FumC-MaeB assay of succinate oxidation in SMPs, NADPH absorbance on complex II (succinate:ubiquinone oxidoreductase, succinate dehydrogenase) in bovine heart submitochondrial particles | atpenin A5, an inhibitor that binds in the complex II ubiquinone-binding site, has an IC50 | malonate, an inhibitor that binds in the complex II flavin site, has an IC50

Series [2] has as its target FumC (fumarate hydratase) (Escherichia coli, UniProt P05042). Conditions: pH 7.4, 32 °C, 10 mM Tris-SO4, 2 mM MgSO4, 1 mM K2SO4, 2 mM NADP+, 300 μg/ml MaeB; kcat apparently per tetramer.
The target of series [3] is T1, complex II (succinate:ubiquinone oxidoreductase, succinate dehydrogenase) in bovine heart submitochondrial particles. Briefly: coupled FumC-MaeB assay of succinate oxidation in SMPs, NADPH absorbance. Conditions: pH 7.4, 32 °C, 2 mM NADP+, 2 mM MgSO4, endogenous ubiquinone-10, turnover to O2, kcat uses a published complex II content. The class given is biochemical.
Substrate in series [4]: O=C(O)C[C@H](O)C(=O)O
The series is described as follows: purified protein. Conditions: 4 mM NADP+, pH 7.4, 32 °C, 10 mM Tris-SO4, 2 mM MgSO4, 1 mM K2SO4, kcat apparently per octamer, malate stereo not given.

Substrate in series [5]: NC(=O)c1ccc[n+]([C@@H]2O[C@H](COP(=O)(O)OP(=O)(O)OC[C@H]3O[C@@H](n4cnc5c(N)ncnc54)[C@H](OP(=O)(O)O)[C@@H]3O)[C@@H](O)[C@H]2O)c1
The series is described as follows: purified protein. Conditions: 40 mM malate, pH 7.4, 32 °C, 10 mM Tris-SO4, 2 mM MgSO4, 1 mM K2SO4.

Like-named read-outs stand apart in the source and are kept apart here.

T1 sequence (P31039 44-665): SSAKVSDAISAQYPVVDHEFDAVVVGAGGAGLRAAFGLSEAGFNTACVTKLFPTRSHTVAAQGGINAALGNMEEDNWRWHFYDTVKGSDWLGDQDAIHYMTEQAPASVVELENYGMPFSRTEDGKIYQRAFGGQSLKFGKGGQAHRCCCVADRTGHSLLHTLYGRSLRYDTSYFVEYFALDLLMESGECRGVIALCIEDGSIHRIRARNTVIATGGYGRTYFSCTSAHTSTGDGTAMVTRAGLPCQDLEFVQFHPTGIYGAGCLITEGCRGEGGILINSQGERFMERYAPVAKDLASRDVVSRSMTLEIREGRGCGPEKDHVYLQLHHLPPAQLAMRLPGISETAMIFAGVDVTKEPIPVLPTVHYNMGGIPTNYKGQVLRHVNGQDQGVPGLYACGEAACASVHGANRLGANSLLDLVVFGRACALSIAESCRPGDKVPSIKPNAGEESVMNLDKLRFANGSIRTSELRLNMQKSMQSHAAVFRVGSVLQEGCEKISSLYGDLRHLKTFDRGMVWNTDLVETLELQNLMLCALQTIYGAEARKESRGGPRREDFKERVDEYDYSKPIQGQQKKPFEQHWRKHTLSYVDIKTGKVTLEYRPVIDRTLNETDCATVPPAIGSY
T1 sequence (Q3T189 29-280): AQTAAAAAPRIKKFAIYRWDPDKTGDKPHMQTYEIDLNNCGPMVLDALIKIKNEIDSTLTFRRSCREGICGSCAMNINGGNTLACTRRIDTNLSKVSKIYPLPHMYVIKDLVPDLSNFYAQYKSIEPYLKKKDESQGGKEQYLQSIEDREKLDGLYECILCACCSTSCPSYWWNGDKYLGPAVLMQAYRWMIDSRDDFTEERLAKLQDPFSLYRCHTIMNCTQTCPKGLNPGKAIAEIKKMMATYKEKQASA
T1 sequence (P35720 30-169): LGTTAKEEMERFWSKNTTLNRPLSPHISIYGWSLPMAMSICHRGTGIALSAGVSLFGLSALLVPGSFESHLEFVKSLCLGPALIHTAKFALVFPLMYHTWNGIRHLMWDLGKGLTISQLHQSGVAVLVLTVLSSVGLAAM
T1 sequence (Q95123 56-158): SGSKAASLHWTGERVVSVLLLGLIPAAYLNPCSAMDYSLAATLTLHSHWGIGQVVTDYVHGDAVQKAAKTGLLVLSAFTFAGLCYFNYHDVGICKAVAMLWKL
FumC (fumarate hydratase), sequence (P05042 whole entry): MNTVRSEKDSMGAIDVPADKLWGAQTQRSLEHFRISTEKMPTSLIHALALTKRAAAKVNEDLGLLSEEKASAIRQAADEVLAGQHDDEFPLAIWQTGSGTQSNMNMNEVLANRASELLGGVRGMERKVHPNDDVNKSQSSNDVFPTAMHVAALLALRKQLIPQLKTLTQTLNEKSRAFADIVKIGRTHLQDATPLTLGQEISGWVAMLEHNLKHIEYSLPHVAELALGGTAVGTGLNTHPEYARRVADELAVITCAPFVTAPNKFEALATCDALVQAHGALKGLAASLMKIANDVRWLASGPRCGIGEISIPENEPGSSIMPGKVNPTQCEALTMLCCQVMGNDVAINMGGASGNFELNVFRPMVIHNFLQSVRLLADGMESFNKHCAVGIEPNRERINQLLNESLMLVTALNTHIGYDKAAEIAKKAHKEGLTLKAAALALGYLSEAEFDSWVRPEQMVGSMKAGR

In turn, `COc1[nH]c(=O)c(C(=O)[C@@H](C)C[C@H](C)[C@@H](Cl)CCl)c(O)c1OC` [atpenin A5] registered a 50% inhibitory concentration (IC50) in series [1] (ubiquinone-binding site, full respiratory chain turnover to O2) of 0.0024 ± 0.0012 µM.

For the molecule `O=C(O)/C=C/C(=O)O` [fumarate], the Km in series [2] was determined as 64 ± 7.8 µM.

For `O=C(O)CC(=O)O` [malonate], the half-maximal inhibitory concentration (IC50) in series [1] (flavin (succinate) site, read-out: IC50) stood at 96 ± 1.3 µM.

`O=C(O)CCC(=O)O` [succinate]: the Michaelis-Menten constant (Km) in series [3] was 410 ± 55 µM.

B1: MaeB (oxaloacetate decarboxylating malic dehydrogenase) (Escherichia coli K-12) (protein)
chain: MDDQLKQSALDFHEFPVPGKIQVSPTKPLATQRDLALAYSPGVAAPCLEIEKDPLKAYKYTARGNLVAVISNGTAVLGLGNIGALAGKPVMEGKGVLFKKFAGIDVFDIEVDELDPDKFIEVVAALEPTFGGINLEDIKAPECFYIEQKLRERMNIPVFHDDQHGTAIISTAAILNGLRVVEKNISDVRMVVSGAGAAAIACMNLLVALGLQKHNIVVCDSKGVIYQGREPNMAETKAAYAVVDDGKRTLDDVIEGADIFLGCSGPKVLTQEMVKKMARAPMILALANPEPEILPPLAKEVRPDAIICTGRSDYPNQVNNVLCFPFIFRGALDVGATAINEEMKLAAVRAIAELAHAEQSEVVASAYGDQDLSFGPEYIIPKPFDPRLIVKIAPAVAKAAMESGVATRPIADFDVYIDKLTEFVYKTNLFMKPIFSQARKAPKRVVLPEGEEARVLHATQELVTLGLAKPILIGRPNVIEMRIQKLGLQIKAGVDFEIVNNESDPRFKEYWTEYFQIMKRRGVTQEQAQRALISNPTVIGAIMVQRGEADAMICGTVGDYHEHFSVVKNVFGYRDGVHTAGAMNALLLPSGNTFIADTYVNDEPDAEELAEITLMAAETVRRFGIEPRVALLSHSNFGSSDCPSSSKMRQALELVRERAPELMIDGEMHGDAALVEAIRNDRMPDSSLKGSANILVMPNMEAARISYNLLRVSSSEGVTVGPVLMGVAKPVHVLTPIASVRRIVNMVALAVVEAQTQPL
Take B1: in the series “purified protein [4]”, the Michaelis-Menten constant (Km) was 7300 ± 900 µM and the kcat was determined as 92 ± 0.93 s⁻¹. Further, the Km in the series “purified protein [5]” was 52 ± 2.6 µM.
